Patent US20240041042A1, “1-(PYRIDYL)-5-AZINYLPYRAZOLE DERIVATIVES, AND THEIR USE FOR CONTROL OF UNDESIRED PLANT GROWTH” (Bayer Aktiengesellschaft, priority 2020, published 2024)

Assays:
Type in all cases: in vivo
[1] = system: Alopecurus myosuroides (ALOMY); experiment: Pre-emergence herbicidal action against ALOMY; conditions: scored visually after about 3 weeks, 100% = plants have died
In short: (§1)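 Pre-emergence soil-surface spray, WP/EC formulation, 0.5% additive, 600 l/ha water, rates of 320 g/ha or lower. Greenhouse, ~3 wk. Visual score, % of untreated control (100% = plants dead, 0% = like control).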

[2] = system: Abutilon theophrasti (ABUTH); experiment: Post-emergence herbicidal action against ABUTH; conditions: visual rating about 3 weeks after treatment vs untreated controls (100% = plants have died, 0% = like control plants)
In short: (§2)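 Greenhouse plants sprayed at the one-leaf stage, 2–3 weeks after sowing, with WP or EC formulations plus 0.5% additive at 600 l/ha water. Activity rated visually after about 3 weeks versus untreated controls (100% = dead, 0% = like control), at 320 g/ha or lower.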

[3] = system: Matricaria inodora (MATIN); experiment: Pre-emergence herbicidal action against MATIN
In short: as §1

[4] = system: Amaranthus retroflexus (AMARE); experiment: Pre-emergence herbicidal action against AMARE; conditions: visual scoring after about 3 weeks vs untreated controls
In short: as §1

[5] = system: Echinochloa crus-galli (ECHCG); experiment: Pre-emergence herbicidal action against ECHCG
In short: as §1

[6] = system: Polygonum convolvulus (POLCO); experiment: Pre-emergence herbicidal action against POLCO
In short: as §1

[7] = system: Polygonum convolvulus (POLCO); experiment: Post-emergence herbicidal action against POLCO
In short: as §2

[8] = system: Echinochloa crus-galli (ECHCG); experiment: Post-emergence herbicidal action against ECHCG
In short: as §2

[9] = system: Alopecurus myosuroides (ALOMY); experiment: Post-emergence herbicidal action against ALOMY; conditions: visual rating about 3 weeks after treatment vs untreated controls (100% = plants have died, 0% = like control plants)
In short: as §2

Lolium rigidum (LOLRI) = experiment: Post-emergence herbicidal action against LOLRI
In short: as §2

Compound	Pre-emergence action against ALOMY ([1]; 80 g/ha)	Pre-emergence action against ALOMY ([1]; 320 g/ha)	Post-emergence action against ABUTH in % ([2]; 320 g/ha)	Pre-emergence action against MATIN in % ([3]; dosage 80 g/ha)	Pre-emergence action against MATIN in % ([3]; dosage 320 g/ha)	Pre-emergence action against AMARE in % ([4]; 80 g/ha)	Pre-emergence action against AMARE in % ([4]; 320 g/ha)	Pre-emergence action against ECHCG in % ([5]; dosage 80 g/ha)	Pre-emergence action against ECHCG in % ([5]; dosage 320 g/ha)	Pre-emergence action against POLCO in % ([6]; dosage 80 g/ha)	Pre-emergence action against POLCO in % ([6]; dosage 320 g/ha)	Post-emergence action against POLCO in % ([7]; dosage 80 g/ha)	Post-emergence action against POLCO in % ([7]; dosage 320 g/ha)	Post-emergence action against ECHCG in % ([8]; dosage 80 g/ha)	Post-emergence action against ECHCG in % ([8]; dosage 320 g/ha)	Post-emergence action against ALOMY in % ([9]; 80 g/ha)	Post-emergence action against ALOMY in % ([9]; 320 g/ha)	Post-emergence action against LOLRI in % (Lolium rigidum (LOLRI); dosage 80 g/ha)	Post-emergence action against LOLRI in % (Lolium rigidum (LOLRI); dosage 320 g/ha)	Post-emergence action against ABUTH in % ([2]; 80 g/ha)
COC(=O)[C@@H](C)Oc1nn(-c2nc(F)ccc2F)c(-c2cncc(F)c2)c1C1CC1 [Example I-171]	100%	100%	90%	90%	90%	100%	100%	100%	100%	90%	90%	80%	90%	80%	80%	90%	90%	80%	90%	–
CCOC(=O)COc1nn(-c2ccccn2)c(-c2ccc(F)nc2)c1Br [Example I-02]	100%	90%	80%	–	100%	100%	100%	–	100%	80%	80%	80%	80%	90%	90%	80%	100%	80%	80%	80%
C[C@@H](Oc1nn(-c2ncccc2F)c(-c2ccc(F)nc2)c1Br)C(=O)O [Example I-10]	100%	100%	80%	80%	100%	100%	100%	80%	90%	100%	100%	80%	80%	–	80%	100%	100%	90%	90%	–
COC(=O)C(C)COC(=O)[C@@H](C)Oc1nn(-c2ccccn2)c(-c2cncc(F)c2)c1Br (stereo partly shown) [Example I-188]	90%	100%	80%	90%	90%	100%	100%	100%	100%	90%	90%	80%	80%	80%	90%	80%	90%	90%	90%	80%
COC(=O)C(C)COC(=O)C(C)Oc1nn(-c2ccccn2)c(-c2ccc(F)nc2)c1Cl (stereo not shown) [Example I-291]	100%	100%	80%	–	90%	80%	100%	–	90%	80%	90%	80%	80%	80%	80%	80%	80%	80%	80%	–
CCOC(=O)COc1nn(-c2nc(F)ccc2F)c(-c2cncc(F)c2)c1Br [Example I-193]	–	90%	80%	90%	90%	80%	100%	90%	100%	80%	100%	80%	80%	90%	90%	90%	100%	–	90%	80%
COC(=O)COc1nn(-c2ncccc2F)c(-c2cncc(F)c2)c1C1CC1 [Example I-167]	90%	100%	80%	90%	90%	100%	100%	100%	100%	90%	90%	80%	80%	80%	80%	90%	90%	80%	80%	80%
